# Like-named read-outs stand apart in the source and are kept apart here.
# Columns and labels:
# HIV = settings: cited from earlier work
# [1] = Rectal swab / rectal secretion drug concentrations after two oral doses in MSM; format: in vivo, human; settings: for Mean concentration on rectal swabs at 48 h: 48 h after first dose (elvitegravir peak), geometric mean; for Concentration on rectal swabs by 120 h: LLOQ 1 ng/swab; for Time of peak mean concentration on rectal swabs: hours after first dose
# [2] = stated as known, no reference given; cited from earlier work
# clinical [3] = experiment: clinical; parameters: species or system human; settings: in vivo; for Cmax: po
# [4] = parameters: species or system human; settings: in vivo; for Antiretroviral drug detection, glans swab / Antiretroviral drug detection, urethral swab: male, human
# clinical [5] = experiment: clinical; parameters: species or system human; settings: in vivo; for AUC0–120h in plasma / Mean plasma concentration by 72 h (48 h after the second dose) / Cmax / Tmax: po
# [6] = parameters: species or system human; settings: in vivo
# [7] = cited from earlier work
# [8] = format: in vivo, human; settings: for Cmax in PBMCs: all participants, geometric mean (95% CI)
# [9] = format: in vivo, human; settings: for Mean peak concentration in rectal tissue: 48 h after the first dose; for Time of peak mean concentration in rectal tissue: after the first dose; for Time rectal tissue concentrations remained measurable after the second dose: in vivo
structure (smiles),measurement,setting,value
COc1cc2c(cc1Cc1cccc(Cl)c1F)c(=O)c(C(=O)O)cn2[C@H](CO)C(C)C [elvitegravir],95% protein-adjusted inhibitory concentration (PAIC95),HIV,45 ng/mL
same,Mean concentration on rectal swabs at 48 h,[1],1085 ng/swab
same,Concentration on rectal swabs by 120 h,[1],undetectable in most rectal swabs
same,Elvitegravir rectal swab concentration at 48 h relative to bictegravir,[1]; P = 0.029,over 500 times
same,Time of peak mean concentration on rectal swabs,[1],48 h
same,Protein binding in plasma,[2],highly protein bound
same,AUC0–120h in rectal tissue,clinical [3],469.78 (321.92) ng × h/mg
same,Tmax,"clinical [3]; male, human",4 h
same,concentration at 2 h,"clinical [3]; male, human",1070 ng/g
same,Cmax,"clinical [3]; male, human",3310 ng/g
same,Detection in penile secretions,[4],not consistently detected
same,"Antiretroviral drug detection, glans swab",[4],9/80 (11%)
same,"Antiretroviral drug detection, urethral swab",[4],14/68 (21%)
same,AUC0–120h in plasma,clinical [5],44 472 (4341) ng × h/mL
same,Mean plasma concentration by 72 h (48 h after the second dose),clinical [5],undetectable
same,Cmax,"clinical [5]; male, human",2010 ng/mL
same,Tmax,"clinical [5]; male, human",28 h
same,"Antiretroviral drug detection, urine","[6]; male, human",4/73 (5%)
same,Detected in urine specimens,"[6]; male, human",5%
C[C@H]1CO[C@@H]2Cn3cc(C(=O)NCc4ccc(F)cc4F)c(=O)c(O)c3C(=O)N12 [cabotegravir],Tissue-to-plasma ratio,[7],low tissue-to-plasma ratio
CC(Cn1cnc2c(N)ncnc21)OCP(=O)(O)OP(=O)(O)OP(=O)(O)O (stereo in doubt) [tenofovir diphosphate],Cmax in PBMCs,[8],552 (297–1026) fmol/10^6 PBMC
same,Tmax in PBMCs,[8]; hours after first dose,28 h
same,Mean peak concentration in rectal tissue,[9],15.3 fmol/mg
same,Time of peak mean concentration in rectal tissue,[9],48 h
same,Time rectal tissue concentrations remained measurable after the second dose,[9],at least 96 h
C[C@H](Cn1cnc2c(N)ncnc21)OCP(=O)(O)O [tenofovir],Time of peak mean concentration on rectal swabs,[1],48 h
same,Mean tenofovir concentration on rectal swabs at 48 h (peak),[1]; not different between regimens,16 ng/swab
same,Tenofovir concentration in rectal tissue,"clinical [3]; male, human",less than 1 ng/mg
same,Detected in urine specimens (tenofovir and emtricitabine together),"[6]; male, human",273/276
Nc1nc(=O)n([C@@H]2CS[C@H](CO)O2)cc1F [emtricitabine],Time of peak mean concentration on rectal swabs,[1],48 h
same,Mean emtricitabine concentration on rectal swabs at 48 h (peak),[1]; participants also receiving bictegravir,57 ng/swab
same,Mean emtricitabine concentration on rectal swabs at 48 h (peak),[1]; participants also receiving boosted elvitegravir,241 ng/swab
same,Time of peak mean rectal tissue emtricitabine concentration,"clinical [3]; male, human",4 h
same,Mean plasma concentration by 72 h (48 h after the second dose),clinical [5],undetectable
same,Detected in urine specimens (tenofovir and emtricitabine together),"[6]; male, human",273/276
O=C(NCc1c(F)cc(F)cc1F)c1cn2c(c(O)c1=O)C(=O)N1[C@H]3CC[C@H](C3)O[C@@H]1C2 [bictegravir],95% protein-adjusted effective concentration (PAEC95),HIV,162 ng/mL
same,Mean concentration on rectal swabs at 48 h,[1],2.1 ng/swab
same,Concentration on rectal swabs by 120 h,[1],undetectable in most rectal swabs
same,Protein binding in plasma,[2],highly protein bound
same,AUC0–120h in rectal tissue,clinical [3],20.53 (5.14) ng × h/mg
same,Mean rectal tissue concentration relative to PAEC95,"clinical [3]; male, human",did not reach more than twice the PAEC95
same,concentration at 2 h,"clinical [3]; male, human",270 ng/g
same,Cmax,"clinical [3]; male, human",290 ng/g
same,Detection in penile secretions,[4],not consistently detected
same,"Antiretroviral drug detection, glans swab",[4],2/71 (3%)
same,"Antiretroviral drug detection, urethral swab",[4],3/71 (4%)
same,Plasma AUC0–120h of bictegravir relative to elvitegravir,clinical [5]; human,more than twice
same,AUC0–120h in plasma,clinical [5],94 437 (8748) ng × h/mL
same,Mean plasma concentration 96 h after dosing,"clinical [5]; male, human, 96 h",273 (95% CI: 164–456) ng/mL
same,Cmax,"clinical [5]; male, human",1770 ng/mL
same,Tmax,"clinical [5]; male, human",2 h
same,Urine concentration within 48 h after the second dose,[6],undetectable
same,"Antiretroviral drug detection, urine","[6]; male, human",32/70 (46%)
same,Detected in urine specimens,"[6]; male, human",46%
same,Mean urine concentration,"[6]; male, human",less than 1 μg/mL
Nc1nc(=O)n([C@@H]2CS[C@H](COP(=O)(O)OP(=O)(O)OP(=O)(O)O)O2)cc1F [emtricitabine triphosphate],Cmax in PBMCs,[8],7549 (6528–8729) fmol/10^6 PBMC
same,Tmax,"[8]; male, human, PBMCs, oral, 200 mg",26 h
same,Mean peak concentration in rectal tissue,[9],64.1 fmol/mg
same,Time of peak mean concentration in rectal tissue,[9],48 h
same,Time rectal tissue concentrations remained measurable after the second dose,[9],at least 96 h

# From PMC10161260 (The Journal of antimicrobial chemotherapy, 2023)
